According to patent US6951647B2, “T cell binding ligand peptides and method of inducing a cellular immune response” (Cel-Sci Corporation, priority 2001, dated 2005):
Several values for one entry are separate records, joined by “and”; a condition that tells them apart may be missing. Equal entries are not always repeated.

What was measured:
E Clade = experiment: ELISA cross clade recognition by sera of immunized mice, E Clade; format: in vivo; settings: for ELISA test antigen E Clade: day 42 test bleeding, Group Average
Peptide G = experiment: Specificity analysis for the TCBL carrier, ELISA plates coated with Peptide G; format: in vivo, Mice; settings: individual animal
D Clade [1] = experiment: ELISA cross clade recognition by sera of immunized mice, D Clade; format: in vivo; settings: for ELISA test antigen D Clade: day 42 test bleeding, Group Average
modified HGP-30 [2] = experiment: ELISA for antibody after antisera depletion of CD4 or CD8 cells (FIG. 2); format: in vivo, Mice; settings: pretreatment with anti-CD4, day 28, p=0.002 (FIG. 2)
From the text: (§1) Select immunoglobulin preparations were obtained from Dr. Stephen Hoffmann, Malaria Program, U.S. Navy. […] This allows one to determine some parts of the nature of various cellular (e.g., T-cell) involvement in the early stage of immune system response with the LEAPS peptide-constructs. It is recognized, however, that this is only a temporary event since new cells are continuously being developed from stem cells and the animals become resistant to the reagents.
(§2) The animals are pretreated with the antisera as indicated for 5 days before the initial immunization with peptide-construct having SEQ ID NO:37 or SEQ ID NO:39 on […]. No pretreatment is done before the booster immunization on day 14 or DTH on day 26-28. The mice are then inoculated with the test antigen or saline (control) on day 26 in the left and right ears, respectively, and the DTH response is measured on day 28. The difference between the values for the test and saline control ears is calculated for each group of five animals along with the standard error of the mean (sem) and the results are plotted (see FIG. 1). Also shown in FIG. 1 are values for the untreated animals and animals immunized on day 14 only.
This example is similar to Example 2 but using a more sensitive ELISA test for antibody type. […] This was not the case, however, with pretreatment using anti-CD8 or normal rat IgG. […]

modified HGP-30 [3] = experiment: Delayed Type Hypersensitivity (DTH) ear thickness response with antisera depletion of CD4 or CD8 cells; format: in vivo, Mice
Procedure: Mice in groups (5-10 animals per group as designated) are immunized with the LEAPS constructs (25 μg/dose) of SEQ ID NO's:37, 38 and 39, in 0.2 mL emulsified 1:1 with adjuvant (Seppic's ISA-51 or Corixa's microfluidized MPL S/E) on days 0 and 14. Mice are evaluated by Delayed Type of Hypersensitivity (DTH) by inoculation on day 26 with 20 μl of a solution of saline or mH (SEQ ID NO:6) (25 μg in saline) in the left or right ear respectively. The DTH response is determined by measurement of the ear thickness 48 hours later and expressed as increase in ear thickness (mm) of experimental ear compared to that of the control ear. Individual animal sera are collected for measurement of antibody on day 28, 42, 63 and 77. Sera from individual animals and group pools are evaluated for specific anti-mH antibody, for total antibody, IgG1, IgG2a and IgG3 antibody isotype and cross clade titer at selected time points as indicated.
as §1, §2
The DTH (Delayed Type Hypersensitivity) data is statistically significant with a t-test of 0.05 for SEQ ID NO:39 and anti-CD8. The DTH for pretreatment of SEQ ID NO:37 immunized mice with anti-CD4 was just above the cutoff limit for statistical significance due to a weaker DTH response and small group size.

D Clade [4] = experiment: ELISA cross clade recognition by sera of immunized mice, D Clade; format: in vivo; settings: day 42 test bleeding, individual mouse
C Clade = experiment: ELISA cross clade recognition by sera of immunized mice, C Clade; format: in vivo; settings: for ELISA test antigen C Clade: day 42 test bleeding
[5] = day 63 test bleeding, sera 1:200, individual mouse
[6] = Day 14 Injection Only (immunized with construct on day 14 only), average of group of 5 mice
[7] = Treatment Anti CD4, daily for 5 days before immunization, average of group (5 mice)
[8] = Treatment Anti CD8, daily for 5 days before immunization, average of group of 5 mice
[9] = Treatment None, average of group (5 mice), ISA 51 adjuvant
[10] = Treatment Normal rat IgG, daily for 5 days before immunization, average of group (5 mice)

Substance: DGQ EEK AGV VST GLI GGG ATL YSV HQR IDV KDT KEA LEK IEE EQN KS (DGQEEKAGVVSTGLIGGGYLSGANLNL) [SEQ ID NO: 57, Peptide G′ linked by GGG spacer to modified HGP-30 (mH)]
- ELISA test antigen E Clade (E Clade; group (A)): 0.035
- ELISA test antigen E Clade (E Clade; group (B)): 0.094
- ELISA signal on E Clade (E Clade; [5]): 0.933 and 0.030 and 0.113 and 0.041 and 0.000 (2×) and 0.029 and 0.068 and 0.006 and 0.271
- A 490 1:200 dilution on plates coated with Peptide G (Peptide G; day 42, first set of groups (animals 4637-4648, 4674-4678)): 0.083 A 490 and 0.054 A 490 and 0.097 A 490 and 0.038 A 490 and 0.087 A 490 and 0.121 A 490
- A 490 1:200 dilution on plates coated with Peptide G (Peptide G; day 42, second set of groups (animals 4662-4673, 4679-4683)): 0.091 A 490 and 0.024 A 490 and 0.006 A 490 and 0.015 A 490 and 0.126 A 490 and 0.113 A 490
- ELISA test antigen D Clade (D Clade [1]; group (A)): 0.030
- ELISA test antigen D Clade (D Clade [1]; group (B)): 0.755
- ELISA signal on D Clade (D Clade [1]; [5]): 1.527 and 0.438 and 0.408 and 0.125 and 1.471 and 0.772 and 1.328 and 1.370 and 0.000 and 0.374
- Antibody detection by ELISA after antisera depletion (modified HGP-30 [2]): completely eliminated any antibodies from being detected
- Left Ear thickness, inoculated day 26 with HGP-30, measured after 48 hours (modified HGP-30 [3]; [6]): 0.234 mm
- Right Ear thickness, inoculated day 26 with saline, measured after 48 hours (modified HGP-30 [3]; [6]): 0.222 mm
- DTH % increase (L-R)/R (modified HGP-30 [3]; Day 14 Injection Only, average of group of 5 mice): 5.10%
- Left Ear thickness, inoculated day 26 with HGP-30, measured after 48 hours (modified HGP-30 [3]; [7]): 0.252 mm
- Right Ear thickness, inoculated day 26 with saline, measured after 48 hours (modified HGP-30 [3]; [7]): 0.237 mm
- DTH % increase (L-R)/R (modified HGP-30 [3]; Treatment Anti CD4, average of group (5 mice)): 6.10%
- Left Ear thickness, inoculated day 26 with HGP-30, measured after 48 hours (modified HGP-30 [3]; [8]): 0.290 mm
- Right Ear thickness, inoculated day 26 with saline, measured after 48 hours (modified HGP-30 [3]; [8]): 0.232 mm
- DTH % increase (L-R)/R (modified HGP-30 [3]; Treatment Anti CD8, average of group of 5 mice): 25.00%
- DTH % increase (L-R)/R (modified HGP-30 [3]; Treatment None, average of group (5 mice)): 22.10%
- Left Ear thickness, inoculated day 26 with HGP-30, measured after 48 hours (modified HGP-30 [3]; [9]): 0.274 mm
- Right Ear thickness, inoculated day 26 with saline, measured after 48 hours (modified HGP-30 [3]; [9]): 0.224 mm
- Left Ear thickness, inoculated day 26 with HGP-30, measured after 48 hours (modified HGP-30 [3]; [10]): 0.278 mm
- Right Ear thickness, inoculated day 26 with saline, measured after 48 hours (modified HGP-30 [3]; [10]): 0.232 mm
- DTH % increase (L-R)/R (modified HGP-30 [3]; Treatment Normal rat IgG, average of group (5 mice)): 19.90%
- Type of cells required for a DTH response (modified HGP-30 [3]; cell specific antisera as depletion reagent for the primary immunization (FIG. 1)): requires the presence and presumably activation of CD4+ but not CD8+ cells
- ELISA test antigen D Clade (D Clade [4]; group (A)): 0.052 and 0.000 (2×) and 0.010 and 0.003 and 0.114
- ELISA test antigen D Clade (D Clade [4]; group (B)): 0.087 and 0.095 and 0.185 and 1.799 and 1.727 and 0.637
- ELISA test antigen C Clade (C Clade; group (A), Group Average): 0.712
- ELISA test antigen C Clade (C Clade; group (A), individual mouse): 0.616 and 0.000 and 0.518 and 0.920 and 0.767 and 1.454
- ELISA test antigen C Clade (C Clade; group (B), Group Average): 1.559
- ELISA test antigen C Clade (C Clade; group (B), individual mouse): 2.575 and 0.837 and 1.711 and 2.254 and 0.911 and 1.070
- ELISA signal on C Clade (C Clade; [5]): 1.454 and 0.127 and 0.427 and 0.073 and 1.592 and 0.651 and 1.365 and 1.139 and 0.008 and 1.191
